From patent publication US11160871B2, “SSTR-targeted conjugates and particles and formulations thereof” (TARVEDA THERAPEUTICS, INC., priority 2015, dated 2021)
“And” between values parts separate entries of the source, which are not always exact repeats. Equal values may be shown once.

What was measured:
IMR-32 cells = test: In vitro competitive assay in IMR-32 cells; assay type: cell-based; conditions: absence of octreotide
Protocol: First, an in vitro competitive assay was conducted where IMR-32 cells were treated with Conjugate 57 in the absence or presence of an excess of octreotide. […] Pre-incubation with octreotide affected the inhibition.

[1] = test system: HCC-33 (small cell lung cancer) xenograft; test: HCC-33 xenograft, multiple dose regimens (Example 17); assay type: in vivo
Protocol: HCC-33 (small cell lung cancer) xenograft was chosen to study efficacy of Conjugate 57. In some groups, Conjugate 57 was given at 1.0 mg/kg, 0.5 mg/kg or 0.33 mg/kg every week for 30 days, a total of four doses for each animal. In some other groups, Conjugate 57 was also given at 0.5 mg/kg or 0.25 mg/kg twice a week for 30 days, a total of 8 total doses for each animal.

NCI-H524 cells = test: PH3 assay of cell-cycle arrest; assay type: cell-based, human
Text: Results of a PH3 assay measuring effect on cell-cycle arrest that looks at phospho histone H3 (PH3) increases were shown in FIG. 2B.

SSTR2 = SSTR2 (Homo sapiens, UniProt P30874); test: Radioligand-receptor binding assay, [125I] labeled somatostatin; design: host or cells: CHO-K1
Protocol: (§1) Two conjugates were assessed in an in vitro assay evaluating binding to the somatostatin receptor 2 (SSTR2). A radioligand-receptor binding assay was conducted at Eurofins Panlabs (Taiwan) to determine the affinity of conjugates described herein to the SSTR2. The assay measures binding of radiolabeled ligand, [^125I] labeled somatostatin, to human SSTR2 using membrane preparations from SSTR2 expressing CHO-K1 cells. Membranes were incubated with radiolabeled somatostatin (0.03 nM) in the presence of conjugate/compound starting at a dose of 10 uM using 6× serial dilutions to obtain a 10-pt curve. After a four hour incubation, membranes were filtered and washed 3× and counted to determine the remaining[^125 I] somatostatin bound to the receptor. IC50 values were determined by a non-linear, least squares regression analysis using MathIQ™ (ID Business Solutions Ltd., UK). The Ki values were calculated using the equation of Cheng and Prusoff (Cheng and Prusoff, Biochem. Pharmacol. 22:3099-3108, 1973) using the observed IC50 of the tested conjugate/compound, the concentration of radioligand employed in the assay, and the historical values for the KD of the ligand obtained at Eurofins.

[2] = test system: NIC-H524 tumor xenograft model (SSTR2 expressing); test: Dose response study in NIC-H524 tumor xenograft model; assay type: in vivo
Protocol: A dose response study was carried out in NIC-H524 tumor xenograft model (SSTR2 expressing) with a single dose of Conjugate 57. Doses evaluated were 0.5 mg/kg, 1.0 mg/kg, and 2.0 mg/kg.

hERG = hERG (Homo sapiens, UniProt Q12809); test: IonWorks Quattro hERG assay; assay type: cell-based; conditions: up to 10 uM
[3] = Membrane permeability in Caco-2 monolayers; assay type: in vitro ADME; conditions: human, Caco-2; Test Conc. 10 uM
Protocol: (§2) Membrane permeability of Conjugate 57 was measured in Caco-2 monolayers. The apparent permeability (Papp) was determined to be very low in both the apical to basolateral direction and the basolateral to apical direction.

Caco-2 monolayers = test: Membrane permeability in Caco-2 monolayers; assay type: in vitro ADME; conditions: Test Conc. 10 uM
Protocol: as §2

SSTR3 = SSTR3 (Homo sapiens, UniProt P32745); test: Radioligand-receptor binding assay, same method; conditions: read-out: Conjugate 57 Ki
Protocol: as §1
(§3) In another study, the binding of Conjugate 57 to the five SSTRs was measured with the same method. Conjugate 57 binds selectively and with high affinity to SSTR2.

SSTR5 = SSTR5 (Homo sapiens, UniProt P35346); test: Radioligand-receptor binding assay, same method; conditions: read-out: Conjugate 57 Ki
Protocol: as §1, §3

SSTR4 = SSTR4 (Homo sapiens, UniProt P31391); test: Radioligand-receptor binding assay, same method; conditions: read-out: Conjugate 57 Ki
Protocol: as §1, §3

SSTR1 = SSTR1 (Homo sapiens, UniProt P30872); test: Radioligand-receptor binding assay, same method; conditions: read-out: Conjugate 57 Ki
Protocol: as §1, §3

[4] = test system: NCI-H69 small cell lung cancer model; test: NCI-H69 model, comparison with standard of care combination; assay type: in vivo, rats; conditions: Cycle 1 Day 1, Cycle 2 Day 8; Conjugate 57 one cycle at MTD (2 mg/kg), other doses equivalent
Protocol: In yet another study, single cycle of Conjugate 57 treatment was compared with two cycles of standard of care combination in NCI-H69 small cell lung cancer model. NCI-H69 bearing rats were treated with two cycles of cctreotide+DM1, one or two cycles of cisplatin+etoposide, one cycle of Conjugate 57. Cycle 1 was given on Day 1, Cycle 2 on Day 8. Rats were dosed with MTD (2 mg/kg) of Conjugate 57. Octreotide, DM1, cisplatin, and etoposide doses were equivalent to Conjugate 57.

[5] = 0.25 mg/kg 2x/wk, 8 total doses
[6] = 0.33 mg/kg every week, four doses
[7] = 0.5 mg/kg every week, four doses
[8] = 1.0 mg/kg every week, four doses
[9] = single dose 0.5, 1.0 and 2.0 mg/kg

SSTR2, sequence (P30874 whole entry): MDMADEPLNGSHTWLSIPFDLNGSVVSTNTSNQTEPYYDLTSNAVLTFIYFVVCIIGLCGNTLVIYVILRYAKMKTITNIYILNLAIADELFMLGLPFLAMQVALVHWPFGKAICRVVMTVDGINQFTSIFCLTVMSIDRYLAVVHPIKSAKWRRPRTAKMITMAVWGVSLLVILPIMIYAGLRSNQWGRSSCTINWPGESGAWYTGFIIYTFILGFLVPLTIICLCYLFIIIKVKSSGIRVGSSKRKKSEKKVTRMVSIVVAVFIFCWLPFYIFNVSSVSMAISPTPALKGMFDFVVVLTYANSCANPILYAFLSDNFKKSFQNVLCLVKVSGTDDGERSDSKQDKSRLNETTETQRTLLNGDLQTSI
SSTR3, sequence (P32745 whole entry): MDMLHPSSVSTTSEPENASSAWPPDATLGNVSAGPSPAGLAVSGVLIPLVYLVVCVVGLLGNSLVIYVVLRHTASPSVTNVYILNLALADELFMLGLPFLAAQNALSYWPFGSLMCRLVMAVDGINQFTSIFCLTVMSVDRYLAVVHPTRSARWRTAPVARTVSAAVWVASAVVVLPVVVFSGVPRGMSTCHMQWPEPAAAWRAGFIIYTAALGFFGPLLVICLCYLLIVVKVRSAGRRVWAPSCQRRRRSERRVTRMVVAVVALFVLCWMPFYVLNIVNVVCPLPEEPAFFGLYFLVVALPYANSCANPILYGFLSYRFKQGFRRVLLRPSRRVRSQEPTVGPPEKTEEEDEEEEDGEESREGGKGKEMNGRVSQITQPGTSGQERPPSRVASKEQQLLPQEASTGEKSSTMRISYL
SSTR4, sequence (P31391 whole entry): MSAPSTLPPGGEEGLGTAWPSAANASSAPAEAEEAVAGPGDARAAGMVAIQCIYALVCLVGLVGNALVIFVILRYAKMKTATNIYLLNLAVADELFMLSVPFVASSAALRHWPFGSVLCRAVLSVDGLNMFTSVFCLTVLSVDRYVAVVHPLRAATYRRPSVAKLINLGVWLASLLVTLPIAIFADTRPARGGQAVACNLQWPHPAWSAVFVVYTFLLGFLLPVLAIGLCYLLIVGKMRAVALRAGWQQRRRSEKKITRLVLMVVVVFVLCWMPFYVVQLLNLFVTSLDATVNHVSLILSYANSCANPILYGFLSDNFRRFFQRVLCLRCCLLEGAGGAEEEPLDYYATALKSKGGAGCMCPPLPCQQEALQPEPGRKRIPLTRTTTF
hERG, sequence (Q12809 whole entry): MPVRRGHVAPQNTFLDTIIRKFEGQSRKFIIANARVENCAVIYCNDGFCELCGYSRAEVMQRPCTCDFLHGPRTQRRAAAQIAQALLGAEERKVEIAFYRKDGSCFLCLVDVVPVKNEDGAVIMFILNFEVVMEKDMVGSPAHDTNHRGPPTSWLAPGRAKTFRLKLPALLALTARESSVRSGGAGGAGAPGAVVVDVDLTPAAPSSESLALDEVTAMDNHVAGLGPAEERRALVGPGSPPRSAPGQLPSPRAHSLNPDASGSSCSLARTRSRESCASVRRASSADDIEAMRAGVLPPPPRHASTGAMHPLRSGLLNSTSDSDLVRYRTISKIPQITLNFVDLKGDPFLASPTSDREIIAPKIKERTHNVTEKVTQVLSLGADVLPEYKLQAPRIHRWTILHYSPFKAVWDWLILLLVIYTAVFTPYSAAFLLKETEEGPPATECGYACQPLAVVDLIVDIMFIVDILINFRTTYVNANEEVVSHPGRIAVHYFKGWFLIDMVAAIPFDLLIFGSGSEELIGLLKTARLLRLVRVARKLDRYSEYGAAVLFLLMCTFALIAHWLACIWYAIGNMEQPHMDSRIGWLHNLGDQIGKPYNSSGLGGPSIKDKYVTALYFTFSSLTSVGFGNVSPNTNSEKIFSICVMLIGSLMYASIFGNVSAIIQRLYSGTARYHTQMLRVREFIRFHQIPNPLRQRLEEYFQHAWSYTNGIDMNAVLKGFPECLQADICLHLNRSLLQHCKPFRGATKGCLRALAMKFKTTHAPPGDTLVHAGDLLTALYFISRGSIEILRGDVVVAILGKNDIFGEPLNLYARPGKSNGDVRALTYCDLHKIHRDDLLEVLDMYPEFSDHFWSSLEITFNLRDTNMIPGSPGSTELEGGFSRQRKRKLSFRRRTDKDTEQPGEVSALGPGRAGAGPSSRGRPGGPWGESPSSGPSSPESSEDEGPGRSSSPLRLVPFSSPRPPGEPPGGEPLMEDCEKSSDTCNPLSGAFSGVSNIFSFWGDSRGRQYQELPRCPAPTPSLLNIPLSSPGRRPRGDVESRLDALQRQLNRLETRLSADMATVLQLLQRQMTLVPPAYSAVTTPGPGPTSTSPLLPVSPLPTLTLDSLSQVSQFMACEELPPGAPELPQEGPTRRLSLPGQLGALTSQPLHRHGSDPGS
SSTR5, sequence (P35346 whole entry): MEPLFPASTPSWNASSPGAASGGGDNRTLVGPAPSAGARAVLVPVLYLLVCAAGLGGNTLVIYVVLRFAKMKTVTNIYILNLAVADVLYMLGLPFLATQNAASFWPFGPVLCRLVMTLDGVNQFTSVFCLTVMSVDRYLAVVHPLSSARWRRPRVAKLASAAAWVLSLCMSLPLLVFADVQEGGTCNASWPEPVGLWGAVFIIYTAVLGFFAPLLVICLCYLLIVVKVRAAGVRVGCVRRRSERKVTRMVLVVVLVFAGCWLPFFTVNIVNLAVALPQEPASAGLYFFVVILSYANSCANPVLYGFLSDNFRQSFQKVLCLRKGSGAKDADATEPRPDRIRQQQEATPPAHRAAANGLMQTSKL
SSTR1, sequence (P30872 whole entry): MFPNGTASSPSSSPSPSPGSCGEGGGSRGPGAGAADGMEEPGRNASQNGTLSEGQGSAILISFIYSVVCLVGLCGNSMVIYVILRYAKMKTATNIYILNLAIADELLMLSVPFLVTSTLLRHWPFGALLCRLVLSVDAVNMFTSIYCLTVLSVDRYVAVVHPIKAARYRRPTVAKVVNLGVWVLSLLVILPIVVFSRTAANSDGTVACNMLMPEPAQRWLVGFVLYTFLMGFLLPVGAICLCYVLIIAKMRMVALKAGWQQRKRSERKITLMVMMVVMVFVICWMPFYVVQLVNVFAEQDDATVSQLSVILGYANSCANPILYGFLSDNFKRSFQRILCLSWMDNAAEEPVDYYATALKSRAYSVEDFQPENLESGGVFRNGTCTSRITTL

## COc1cc2cc(c1Cl)N(C)C(=O)C[C@H](OC(=O)[C@H](C)N(C)C(=O)CCSSC[C@H](NC(=O)[C@@H]1CSSC[C@H](NC(=O)[C@H](N)Cc3ccccc3)C(=O)N[C@@H](Cc3ccc(O)cc3)C(=O)N[C@H](Cc3c[nH]c4ccccc34)C(=O)N[C@@H](CCCCN)C(=O)N[C@@H]([C@@H](C)O)C(=O)N1)C(N)=O)[C@]1(C)O[C@H]1[C@H](C)[C@@H]1C[C@@](O)(NC(=O)O1)[C@H](OC)/C=C/C=C(\C)C2 [Conjugate 57]
IMR-32 cells
  growth of IMR-32 cells: inhibited the growth of IMR-32 cells
[1]; [5]
  TGI % Day 4: −12.5%
  TGI % Day 8: 50.4%
  TGI % Day 11: 67.3%
  TGI % Day 15: 85.8%
  TGI % Day 18: 92.3%
  TGI % Day 22: 95.8%
  TGI % Day 25: 97.2%
  TGI % Day 29: 97.8%
[1]; [6]
  TGI % Day 4: 2.1%
  TGI % Day 8: 34.2%
  TGI % Day 11: 48%
  TGI % Day 15: 62.4%
  TGI % Day 18: 73.8%
  TGI % Day 22: 79%
  TGI % Day 25: 83.4%
  TGI % Day 29: 78.5%
[1]; 0.5 mg/kg 2x/wk, 8 total doses
  TGI % Day 4: 0.5%
  TGI % Day 8: 61.6%
  TGI % Day 11: 78.3%
  TGI % Day 15: 91.8%
  TGI % Day 18: 96.2%
  TGI % Day 22: 97.6%
  TGI % Day 25: 99.1%
  TGI % Day 29: 99.2%
[1]; [7]
  TGI % Day 4: 1.6%
  TGI % Day 8: 60.3%
  TGI % Day 11: 68.8%
  TGI % Day 15: 82.7%
  TGI % Day 18: 87.1%
  TGI % Day 22: 91.1%
  TGI % Day 25: 93.6%
  TGI % Day 29: 89.5%
[1]; [8]
  TGI % Day 4: 25.8%
  TGI % Day 8: 69.9%
  TGI % Day 11: 84.4%
  TGI % Day 15: 93.6%
  TGI % Day 18: 97.4%
  TGI % Day 22: 99.2%
  TGI % Day 25: 99.8%
  TGI % Day 29: 99.7%
[1]; all regimens
  tolerability of multiple doses: well tolerated
NCI-H524 cells
  shift in PH3 assay on competition with octreotide: 2.6 fold
SSTR2
  SSTR affinity of Conjugate 57 relative to Conjugate 120: 100,00 fold
SSTR2; Conjugate 57 Ki (nM), SSTR2
  Ki: 0.018 nM and 0.0177 nM
SSTR2; Ki (nm), SSTR affinity, Example 8
  Ki: 0.017 nM
SSTR2; SSTR2 Ki (nM), membranes from SSTR2 expressing CHO-K1 cells
  Ki: 0.018 nM
[2]; [9]
  dose response (tumor volume): clear dose response
  tolerability (body weight change): all doses are well-tolerated
[2]; single dose of 2 mg/kg
  tumor response (tumor volume): significant regression
hERG
  inhibition of hERG: no inhibition
[3]
  Papp A→B at 10 uM: 0.018 ×10⁻⁶ cm/s
  Papp B→A at 10 uM: 0.094 ×10⁻⁶ cm/s
Caco-2 monolayers
  Mean A→B Papp: very low
  Mean B→A Papp: very low
SSTR3
  Ki: 19.8 nM
SSTR5
  Ki: 9.6 nM
SSTR4
  Ki: 5480 nM
SSTR1
  Ki: 310 nM
[4]
  tumor response (tumor volume): complete regression
